Structures are written as SMILES. Where only a bound is given, the exact number is not on record here.

This assay addresses T1, trypsin-activated recombinant human renin (Homo sapiens, UniProt P00797).
T1 sequence (P00797 67-406): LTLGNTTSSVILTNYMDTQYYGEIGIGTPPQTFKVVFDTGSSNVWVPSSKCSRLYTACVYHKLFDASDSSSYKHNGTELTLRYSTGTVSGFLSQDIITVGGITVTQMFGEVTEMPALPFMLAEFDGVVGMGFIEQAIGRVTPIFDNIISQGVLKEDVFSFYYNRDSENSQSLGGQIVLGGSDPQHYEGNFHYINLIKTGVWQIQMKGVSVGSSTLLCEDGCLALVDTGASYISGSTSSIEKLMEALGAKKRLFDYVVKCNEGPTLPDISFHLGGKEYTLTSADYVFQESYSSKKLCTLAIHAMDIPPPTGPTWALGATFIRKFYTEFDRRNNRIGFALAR
As to the kind of experiment: In vitro renin assay, fluorescently labeled peptide, LJL Acquest, results as pIC50 (Example 22). The class given is biochemical. To be noted: found not to demonstrate inhibition at concentrations below the stated value. On the procedure: The potency of renin inhibitors was measured using an in vitro renin assay. In this assay, renin-catalyzed proteolysis of a fluorescently labeled peptide converts the peptide from a weakly fluorescent to a strongly fluorescent molecule. The following test protocol was used. Substrate solution (5 μl; 2 μM Arg-Glu-Lys(5-Fam)-Ile-His-Pro-Phe-His-Leu-Val-Ile-His-Thr-Lys(5,6 Tamra)-Arg-CONH2 in 50 mM Hepes, 125 mM NaCl, 0.1% CHAPS, pH 7.4) then trypsin-activated recombinant human renin (Scott, Martin J. et. al. Protein Expression and Purification 2007, 52(1), 104-116; 5 μL; 600 pM renin in 50 mM Hepes, 125 mM NaCl, 0.1% CHAPS, pH 7.4) were added sequentially to a black Greiner low volume 384-well plate (cat.#784076) pre-stamped with a 100 nl DMSO solution of compound at the desired concentration. The assay plates were incubated at room temperature for 2 hours with a cover plate then quenched by the addition of a stop solution (2 μL; 5 μM of Bachem C-3195 in 50 mM Hepes, 125 mM NaCl, 0.1% CHAPS, pH 7.4, 10% DMSO). The assay plates were read on an LJL Acquest using a 485 nm excitation filter, a 530 nm emission filter, and a 505 nm dichroic filter. Compounds were initially prepared in neat DMSO at a concentration of 10 mM. For inhibition curves, compounds were diluted using a three fold serial dilution and tested at 11 concentrations (e.g. 50 μM-0.8 nM or 25 μM-0.42 nM or 2.5 μM to […]). Curves were analyzed using ActivityBase and XLfit, and results were expressed as pIC50 values.
In general, IC50 refers to the concentration that gives 50% inhibition. In the case of `CNCc1ccc(C(=O)N2CCOC(C(O)(CCCNC(=O)OC)c3cccc(F)c3-c3cc(C)cc(OC)c3)C2)cc1` (centres unmarked), the IC50 was at least 50 µM.
With `COCCCCC(O)(c1ccccc1Oc1c(C)cccc1C)C1CCCN(C(=O)c2ccc(CN)cc2)C1` (centres unmarked) [1-(1-{[4-(aminomethyl)phenyl]carbonyl}-3-piperidinyl)-1-{2-[(2,6-dimethylphenyl)oxy]phenyl}-5-(methyloxy)-1-pentanol], the IC50 was at least 50 µM.
For `COCCCCC(O)(c1cccc(Cl)c1Cc1ccccc1C)C1CCCN(C(=O)c2ccc(CN)cc2)C1` (centres unmarked) [1-(1-{[4-(aminomethyl)phenyl]carbonyl}-3-piperidinyl)-1-{3-chloro-2-[(2-methylphenyl)methyl]phenyl}-5-(methyloxy)-1-pentanol], the IC50 was at least 50 µM.
For the compound `CNCc1ccc(C(=O)N2CCOC(C(O)(CCCCOC)c3cccc(Cl)c3-c3nc(C(C)C)c4ccccc4n3)C2)cc1` (centres unmarked) [1-{3-chloro-2-[4-(1-methylethyl)-2-quinazolinyl]phenyl}-1-[4-({4-[(methylamino)methyl]phenyl}carbonyl)-2-morpholinyl]-5-(methyloxy)-1-pentanol], the IC50 is at least 50 µM.
Consider `CNCc1ccc(C(=O)N2CCCC(C(O)(CCCCOC)c3cccc(Cl)c3Cc3cccc(C)c3)C2)cc1` (centres unmarked) [1-{3-chloro-2-[(3-methylphenyl)methyl]phenyl}-1-[1-({4-[(methylamino)methyl]phenyl}carbonyl)-3-piperidinyl]-5-(methyloxy)-1-pentanol], for which the IC50 was at least 50 µM.
Turning to `CCc1cccc(-c2c(Cl)cccc2C(OCCNC(=O)OC)C2CN(C(=O)c3ccc(CNC)cc3)CCO2)c1` (centres unmarked) [methyl [2-({(6-chloro-3′-ethyl-2-biphenylyl)[4-({4-[(methylamino)methyl]phenyl}carbonyl)-2-morpholinyl]methyl}oxy)ethyl]carbamate], the half-maximal inhibitory concentration (IC50) is at least 50 µM.
In the case of `COC(=O)NCCCC(O)(c1cccc(F)c1-c1cc(C)cc(OC)c1)C1CN(C(=O)C2CCC(N)C2)CCO1` (centres unmarked) [methyl {4-(4-{[3-aminocyclopentyl]carbonyl}-2-morpholinyl)-4-[6-fluoro-3′-methyl-5′-(methyloxy)-2-biphenylyl]-4-hydroxybutyl}carbamate], the half-inhibitory concentration (IC50) was at least 50 µM.
The value for `CNCc1ccc(C(=O)N2CCCC(C(O)(CCCNC(=O)OC)c3cccc(F)c3-c3cccs3)C2)cc1` (centres unmarked) [methyl {4-[3-fluoro-2-(2-thienyl)phenyl]-4-hydroxy-4-[1-({4-[(methylamino)methyl]phenyl}carbonyl)-3-piperidinyl]butyl}carbamate] was at least 50 µM.

The values are drawn from patent publication US20100179109A1, “RENIN INHIBITORS” (priority 2007, published 2010).
